Data from ChEMBL document CHEMBL5131467, “Multivalent peptide dendrimers inhibit the fusion of viral-cellular membranes and the cellular NF-κB signaling pathway” (Eur J Med Chem, 2022).
Where a SMILES comes first, the peptide text is derived from it. Bridges are numbered along the chain shown (N, C = ends). Roman numbers before positions name the chains, in order. Side-chain parts run from the residue outwards. The star is where a group is joined. Acetyl(2-naphthyl) = O=C(Cc1ccc2ccccc2c1)*; Fmoc = O=C(OCC1c2ccccc2-c2ccccc21)*

The compounds below were run on Influenza A virus (assay: Antiviral activity against Influenza A virus (A/Puerto Rico/8/1934(H1N1)) NA-H374Y mutant infected in MDCK cells incubated for 1 hr by MTT assay).
Assay type: functional, organism-based

**Q.** For `NCCCC[C@H](NC(=O)OCC1c2ccccc2-c2ccccc21)C(=O)N[C@@H](CCCCN)C(=O)N[C@@H](Cc1c[nH]c2ccccc12)C(=O)N[C@@H](CCCCN)C(=O)NCCCC[C@H](NC(=O)[C@H](CCCCN)NC(=O)[C@H](Cc1c[nH]c2ccccc12)NC(=O)[C@H](CCCCN)NC(=O)[C@H](CCCCN)NC(=O)OCC1c2ccccc2-c2ccccc21)C(=O)NCCCC[C@H](NC(=O)[C@H](CCCCNC(=O)[C@H](CCCCN)NC(=O)[C@H](Cc1c[nH]c2ccccc12)NC(=O)[C@H](CCCCN)NC(=O)[C@H](CCCCN)NC(=O)OCC1c2ccccc2-c2ccccc21)NC(=O)[C@H](CCCCN)NC(=O)[C@H](Cc1c[nH]c2ccccc12)NC(=O)[C@H](CCCCN)NC(=O)[C@H](CCCCN)NC(=O)OCC1c2ccccc2-c2ccccc21)C(=O)NCC(=O)O` (I: Fmoc-KKWKK([Lys-Trp-Lys-Lys-Fmoc])KG-OH / II: Fmoc-KKWKK([Lys-Trp-Lys-Lys-Fmoc]); amide I:6-II:C), which IC50 is on record?
**A.** 540 nM

**Q.** With `CCOC(=O)c1c(CSc2ccccc2)n(C)c2cc(Br)c(O)c(CN(C)C)c12.Cl` as the compound, how does the IC50 read?
**A.** 600 nM

**Q.** `NCCCC[C@H](NC(=O)Cc1ccc2ccccc2c1)C(=O)N[C@@H](CCCCN)C(=O)N[C@@H](Cc1c[nH]c2ccccc12)C(=O)N[C@@H](CCCCN)C(=O)NCCCC[C@H](NC(=O)[C@H](CCCCN)NC(=O)[C@H](Cc1c[nH]c2ccccc12)NC(=O)[C@H](CCCCN)NC(=O)[C@H](CCCCN)NC(=O)Cc1ccc2ccccc2c1)C(=O)NCCCC[C@H](NC(=O)[C@H](CCCCNC(=O)[C@H](CCCCN)NC(=O)[C@H](Cc1c[nH]c2ccccc12)NC(=O)[C@H](CCCCN)NC(=O)[C@H](CCCCN)NC(=O)Cc1ccc2ccccc2c1)NC(=O)[C@H](CCCCN)NC(=O)[C@H](Cc1c[nH]c2ccccc12)NC(=O)[C@H](CCCCN)NC(=O)[C@H](CCCCN)NC(=O)Cc1ccc2ccccc2c1)C(=O)NCC(=O)O` (I: {Acetyl(2-naphthyl)}-KKWKK([Lys-Trp-Lys-Lys-Acetyl(2-naphthyl)])KG-OH / II: {Acetyl(2-naphthyl)}-KKWKK([Lys-Trp-Lys-Lys-Acetyl(2-naphthyl)]); amide I:6-II:C) was tested. Which IC50 did it give?
**A.** 160 nM
